For 27 compounds, IC50 results are on record in patent US10064861B2, “Macrocyclic pyridazinone derivatives” (Merck Patent GmbH, priority 2013, dated 2018).

Where only a bound is given, the exact number is not on record here.

The term IC50 denotes the point on the concentration scale where inhibition reaches its midpoint. A lower IC50 goes with greater potency in that assay.

The target of assay [1] is IRAK1 (Homo sapiens (Human), UniProt P51617). The experiment in a line: IRAK1 enzymatic assay. Format: biochemical. Particulars: His-TEV-IRAK-1, ATP 1 μM, 3 hours at 30° C. Here is the method: IRAK1 is a human purified recombinant enzyme (His-TEV-IRAK1 (194-712)) In this assay, IRAK-1 hydrolyses ATP and autophosphorylates.
Measurement of IRAK-1 inhibition is performed in streptavidin coated 384 well FlashPlate (PerkinElmer #SMP410A).
His-TEV-IRAK-1 (15 ng/well), ATP (1 μM, [^33P]ATP 0.25 μCi/well) and compounds in DMSO (range of concentrations from 20 μM to 1 nM) or controls (2% DMSO) are incubated for 3 hours at 30° C. in assay buffer: Hepes pH 7.0 50 mM, Fatty acid-free BSA 0.1%, Dithiothreitol DTT 2 mM, MgCl2 10 mM, EGTA 0.5 mM, Triton-X-100 0.01%. Kinase reaction is stopped by addition of EDTA. Supernatant is discarded, plates are washed three times with 150 mM NaCl and radioactivity is then measured in a Microbeta Trilux reader.

In assay [2] the target is IRAK4 (Homo sapiens (Human), UniProt Q9NWZ3). The experiment in a line: IRAK4 enzymatic assay. Format: biochemical. The conditions noted are these: His-TEV-IRAK4, ATP 2 μM, STK1-biotin peptide 300 nM, 3 hours at 30° C. Here is the method: IRAK4 is a human purified recombinant enzyme (His-TEV-IRAK1 (194-712) IRAK4 hydrolyses ATP, autophosphorylates and phosphorylates a Serine/Threonine generic peptidic substrate (STK: 61ST1BLC from CisBio International based in Bagnols/Cèze FR).
Measurement of IRAK-4 inhibition is performed in streptavidin coated 384 well FlashPlate (PerkinElmer #SMP410A). His-TEV-IRAK4 (20 ng/well), ATP (2 μM, [^33P]ATP 0.25 μCi/well), STK1-biotin peptide (300 nM) and compounds in DMSO (range of concentrations from 20 μM to 1 nM) or controls (2% DMSO) are incubated for 3 hours at 30° C. in assay buffer: Hepes pH 7.0 50 mM, Fatty acid-free BSA 0.1%, Dithiothreitol DTT 2 mM, MgCl2 10 mM, EGTA 0.5 mM, Tween-20 0.01%, MnCl2 5 mM.
Kinase reaction is stopped by addition of EDTA. Supernatant is discarded, plates are washed three times with 150 mM NaCl and radioactivity is then measured in a Microbeta Trilux reader.

Assay [3] has as its system TLR7 induced IL-6 secretion in human mononuclear cells (PBMC's). The experiment in a line: TLR7 induced IL-6 in human PBMC's. Particulars: TLR7 specific ligand 2 uM overnight, IL-6 AlphaLISA. Format: cell-based. The procedure:
TLR7 Induced IL-6 in Human PBMC's
Human PBMC assay is used as one of the functional assay to monitor the activity of IRAK1 and IRAK4 small molecule inhibitors on TLR7 induced IL-6 secretion in human mononuclear cells (PBMC's). Human PBMCs are prepared from buffy coats (whole blood enriched with leukocytes and platelets) obtained from healthy volunteers used either fresh or frozen are plated in assay media (RPMI+2% P/S/L-glu+10% HI-FBS) and pre-treated with compounds in DMSO/media (range of concentrations from 25 μM to 0.4 nM) or controls (0.25% DMSO) for 30 minutes at 37° C. in assay media. Following pre-treatment with IRAK1 and IRAK4 inhibitors, PBMC's are stimulated with TLR7 specific ligand (2 uM) overnight (16-18 hrs) at 37° C. After incubation supernatant is transferred to 384 well PE AlphaPlate-384 (6005350) and IL-6 is quantified using Perkin Elmer IL-6 Alpha LISA kit (AL223C). Plates are read on an Envision® plate reader with Alpha Technology®.

Chain of IRAK1 (P51617 194-712): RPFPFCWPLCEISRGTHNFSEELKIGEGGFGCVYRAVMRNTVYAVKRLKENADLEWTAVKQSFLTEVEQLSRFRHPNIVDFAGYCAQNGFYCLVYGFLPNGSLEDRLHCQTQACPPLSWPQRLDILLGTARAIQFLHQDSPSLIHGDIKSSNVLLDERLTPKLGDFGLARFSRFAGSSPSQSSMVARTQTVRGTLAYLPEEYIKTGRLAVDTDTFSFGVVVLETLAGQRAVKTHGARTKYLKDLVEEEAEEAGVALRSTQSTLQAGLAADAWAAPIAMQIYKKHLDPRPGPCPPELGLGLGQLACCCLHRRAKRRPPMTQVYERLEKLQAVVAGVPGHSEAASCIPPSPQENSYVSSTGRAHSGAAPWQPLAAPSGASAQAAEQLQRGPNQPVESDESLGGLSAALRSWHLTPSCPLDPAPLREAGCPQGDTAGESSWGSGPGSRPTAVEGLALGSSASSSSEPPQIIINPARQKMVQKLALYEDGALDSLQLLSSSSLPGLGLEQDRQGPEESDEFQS
Chain of IRAK4 (Q9NWZ3 whole entry): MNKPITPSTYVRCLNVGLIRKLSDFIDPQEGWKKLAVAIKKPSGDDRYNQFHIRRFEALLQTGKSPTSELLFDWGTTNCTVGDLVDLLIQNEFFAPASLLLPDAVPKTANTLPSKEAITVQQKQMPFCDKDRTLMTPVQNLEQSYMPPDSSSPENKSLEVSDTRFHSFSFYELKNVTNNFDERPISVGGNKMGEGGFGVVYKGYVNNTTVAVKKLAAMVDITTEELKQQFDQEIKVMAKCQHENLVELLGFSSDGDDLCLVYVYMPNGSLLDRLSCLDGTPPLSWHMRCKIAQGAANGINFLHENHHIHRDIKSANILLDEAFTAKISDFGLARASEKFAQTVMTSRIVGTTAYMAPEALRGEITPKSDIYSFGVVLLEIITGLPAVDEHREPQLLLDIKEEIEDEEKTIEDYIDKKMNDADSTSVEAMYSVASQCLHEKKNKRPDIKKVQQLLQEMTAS

For `O=C1Nc2nc3ccccc3n2C/C=C\COc2ccc(=O)n(n2)Cc2cccc1c2` [Compound 34], the IC50 in assay [1] and in assay [2] was below 100 nM throughout.

In the case of `O=C1Nc2nc3ccccc3n2Cc2cc(ccn2)-c2ccc(=O)n(n2)Cc2cccc1c2` [Compound 16], the IC50 in assay [3], in assay [1] and in assay [2] was below 100 nM in each case.

As to `COc1ccc2cc1Cn1c(nc3ccccc31)NC(=O)c1cccc(c1)Cn1nc-2ccc1=O` [Compound 19, 5-methoxy-8,15,17,25,29-pentaazahexacyclo[23.3.1.1^2,6.1^19,23.0^8,16.0^9,14]hentriaconta-1(29),2(31),3,5,9(14),10,12,15,19(30),20,22,27-dodecaene-18,26-dione], the IC50 in assay [1] is 100 to 1000 nM; in assay [2], below 100 nM.

For the compound `O=C1Nc2nc3ccccc3n2Cc2cncc(c2)-c2ccc(=O)n(n2)Cc2cccc1c2` [Compound 7, 4,8,15,17,25,29-hexaazahexacyclo[23.3.1.1^2,6.1^19,23.0^8,16.0^9,14]hentriaconta-1(29),2(31),3,5,9(14),10,12,15,19(30),20,22,27-dodecaene-18,26-dione], the IC50 in assay [3] and in assay [2] was below 100 nM in each case.

On to `O=C1Nc2nc3ccccc3n2Cc2ccc(Cl)c(c2)-c2ccc(=O)n(n2)Cc2cccc1c2` [Compound 13, 3-chloro-8,15,17,25,29-pentaazahexacyclo[23.3.1.1^2,6.1^19,23.0^8,16.0^9,14]hentriaconta-1(29),2(31),3,5,9(14),10,12,15,19(30),20,22,27-dodecaene-18,26-dione], for which the concentration for half-maximal inhibition (IC50) is below 100 nM in assay [1] and 100 to 1000 nM in assay [2].

Turning to `COc1ccc2cc1CCn1c(nc3ccccc31)NC(=O)c1cccc(c1)Cn1nc-2ccc1=O` [Compound 37], the IC50 in assay [1] and in assay [2] was below 100 nM in each case.

Consider `COc1ccc2c(c1)nc1n2Cc2cccc(c2)-c2ccc(=O)n(n2)Cc2cccc(c2)C(=O)N1` [Compound 29], for which the IC50 in assay [1] and in assay [2] was below 100 nM in each case.

On to `O=C1Nc2nc3ccccc3n2CCc2cc(ccc2O)-c2ccc(=O)n(n2)Cc2cccc1c2` [Compound 38], for which the IC50 in assay [1] and in assay [2] was below 100 nM each time.

As to `CC[C@@H]1c2cccc(c2)C(=O)Nc2nc3ccccc3n2Cc2cccc(c2)-c2ccc(=O)n1n2` [Compound 36b, 24-ethyl-8,15,17,26,29-pentaazahexacyclo[23.3.1.1^2,6.1^19,23.0^8,16.0^9,14]hentriaconta-1(29),2(31),3,5,9(14),10,12,15,19,21,23(30),27-dodecaene-18,26-dione], the IC50 in assay [1] was below 100 nM; in assay [2], 100 to 1000 nM.

For the compound `COc1cc2nc3n(c2cc1OC)CCn1cc(cn1)-c1ccc(=O)n(n1)Cc1cccc(c1)C(=O)N3` [Compound 22], the IC50 in assay [1] and in assay [2] was below 100 nM each time.

Consider `O=C1Nc2nc3cc(O)ccc3n2Cc2cccc(c2)-c2ccc(=O)n(n2)Cc2cccc1c2` [Compound 31], for which the IC50 in assay [1] was below 100 nM; in assay [2], 100 to 1000 nM.

Regarding `Cc1cc(=O)n2nc1-c1cccc(c1)Cn1c(nc3ccccc31)NC(=O)c1cccc(c1)C2` [Compound 4, 28-Methyl-8,15,17,25,29-pentaazahexacyclo[23.3.1.1^2,61^19,230^8,160^9,14]hentriaconta-1(29),2(31),3,5,9(14),10,12,15,19(30),20,22,27-dodecaene-18,26-dione], the IC50 in assay [1] is below 100 nM; in assay [2], 100 to 1000 nM.

For the compound `COc1ccc2c(c1)nc1n2CCn2cc(cn2)-c2ccc(=O)n(n2)Cc2cccc(c2)C(=O)N1` [Compound 33], the IC50 in assay [1] and in assay [2] was below 100 nM throughout.

As for `Cc1cc(=O)n2nc1-c1cnn(c1)CCn1c(nc3ccccc31)NC(=O)c1cccc(c1)C2` [Compound 26], the IC50 in assay [1] and in assay [2] was below 100 nM each time.

`Cc1cc(=O)n2nc1-c1cccc(c1)CCn1c(nc3ccccc31)NC(=O)c1cccc(c1)C2` [Compound 11, 3-methyl-6,14,16,23,32-pentaazahexacyclo[24.3.1.1^2,6.1^8,12.0^15,23.017,22]dotriaconta-1(30),2(32),3,8,10,12(31),15,17,19,21,26,28-dodecaene-5,13-dione]: the IC50 in assay [1] and in assay [2] was below 100 nM in each case.

Turning to `O=C1Nc2nc3ccccc3n2CCOc2cccc(c2)-c2ccc(=O)n(n2)Cc2cccc1c2` [Compound 9, 26-oxa-6,14,16,23,33-pentaazahexacyclo[25.3.1.12,6,1^8,12}0^15,23.0^17,22]tritriaconta-1(31),2(33),3,8,10,12(32),15,17,19,21,27,29-dodecaene-5,13-dione], the IC50 in assay [1] is below 100 nM; in assay [2], 100 to 1000 nM.

As to `COc1ccc2cc1-c1ccc(=O)n(n1)Cc1cccc(c1)C(=O)Nc1nc3ccccc3n1C2` [Compound 15, 3-methoxy-8,15,17,25,29-pentaazahexacyclo[23.3.1.1^2,6.1^19,23.0^8,16.0^9,14]hentriaconta-1(29),2(31),3,5,9(14),10,12,15,19(30),20,22,27-dodecaene-18,26-dione], the IC50 in assay [1] and in assay [2] was below 100 nM in each case.

With `Cc1nn2c(C)c1-c1ccc(=O)n(n1)Cc1cccc(c1)C(=O)Nc1nc3ccccc3n1CC2` [Compound 28], the IC50 in assay [1] and in assay [2] was 100 to 1000 nM in each case.

In assay [3], `O=C1Nc2nc3ccccc3n2CCn2cc(cn2)-c2ccc(=O)n(n2)Cc2cccc1c2` [Compound 14, 4,6,8,15,17,25,29-heptaazahexacyclo[23.3.1.12,5.119,23.08,16.09,14]hentriaconta-1(29),2(31),3,9(14),10,12,15,19(30),20,22,27-undecaene-18,26-dione] yielded a 50% inhibitory concentration (IC50) of 100 to 1000 nM.

As for `CC[C@H]1c2cccc(c2)C(=O)Nc2nc3ccccc3n2Cc2cccc(c2)-c2ccc(=O)n1n2` [Compound 36a, 24-ethyl-8,15,17,26,29-pentaazahexacyclo[23.3.1.1^2,6.1^19,23.0^8,16.0^9,14]hentriaconta-1(29),2(31),3,5,9(14),10,12,15,19,21,23(30),27-dodecaene-18,26-dione], the IC50 in assay [1] and in assay [2] was below 100 nM throughout.

Regarding `CC1c2cccc(c2)C(=O)Nc2nc3ccccc3n2Cc2cccc(c2)-c2ccc(=O)n1n2` (stereo not drawn) [Compound 24], the half-maximal inhibitory concentration (IC50) in assay [1] and in assay [2] was below 100 nM in each case.

Regarding `O=C1Nc2nc3cc(F)c(F)cc3n2Cc2cccc(c2)-c2ccc(=O)n(n2)Cc2cccc1c2` [Compound 6, 11,12-difluoro-8,15,17,25,29-pentaazahexacyclo[23.3.1.1^2,6.1^9,23.0^8,16.0^9,14]hentriaconta-1(29),2(31),3,5,9(14),10,12,15,19(30),20,22,27-dodecaene-18,26-dione], the IC50 was below 100 nM in assay [1] and 100 to 1000 nM in assay [2].

As to `COc1ccc2c(c1)nc1n2CC(O)CCOc2ccc(=O)n(n2)Cc2cccc(c2)C(=O)N1` (stereo not drawn) [Compound 35], the concentration for half-maximal inhibition (IC50) in assay [1] and in assay [2] was below 100 nM throughout.

As to `Cc1cc(=O)n2nc1OCCC(O)Cn1c(nc3ccccc31)NC(=O)c1cccc(c1)C2` (stereo not drawn) [Compound 30], the IC50 in assay [1] and in assay [2] was below 100 nM in each case.

Regarding `O=C1Nc2nc3ccccc3n2Cc2ccc(F)c(c2)-c2ccc(=O)n(n2)Cc2cccc1c2` [Compound 10, 3-Fluoro-8,15,17,25,29-pentaazahexacyclo[23.3.1.1^2,61^19,230^8,160^9,14]hentriaconta-1(29),2(31),3,5,9(14),10,12,15,19(30),20,22,27-dodecaene-18,26-dione], the IC50 is below 100 nM in assay [1] and 100 to 1000 nM in assay [2].

Consider `NCCc1ccc2c(c1)nc1n2Cc2cccc(c2)-c2ccc(=O)n(n2)Cc2cccc(c2)C(=O)N1` [Compound 23], for which the IC50 in assay [1] and in assay [2] was below 100 nM in each case.

For the compound `O=C1Nc2nc3cc(CN4CCOCC4)ccc3n2Cc2cccc(c2)-c2ccc(=O)n(n2)Cc2cccc1c2` [Compound 27], the IC50 in assay [1] and in assay [2] was below 100 nM each time.
